Values quoted from earlier work, collected in patent publication US8183227B1, “Compositions, kits and methods for nutrition supplementation” (Chemo S. A. France, priority 2011, dated 2012).

Conditions: intake of about 1000 IU per day, all adults

C=C1CC[C@H](O)C/C1=C/C=C1\CCC[C@]2(C)[C@@H]([C@H](C)CCCC(C)C)CC[C@@H]12 [vitamin D3, cholecalciferol]
share of the population brought up to the 30 ng/ml serum range for 25-hydroxyvitamin D: at least 50 % of the population
